Data: patent US20160106821A1, “FUNCTIONAL GHRELIN RECEPTOR ANTAGONISM DURING PREGNANCY TO PREVENT STRESS-ASSOCIATED MENTAL ILLNESS IN OFFSPRING AND MOTHERS” (Massachusetts Institute of Technology, priority 2014, published 2016)

What was measured:
offspring = test: Anhedonia (sucrose preference) in offspring after perinatal / in-womb exposure; type: in vivo
Text: FIG. 2 is a diagram depicting the protocol for analysis of babies following birth. FIG. 3 depicts the design of the study with protocols involving vehicle control, low MK0677 or high MK0677 treatment. FIG. 4 is a graph depicting the effects of perinatal exposure to MK0677 on female (dark bar) versus male (lighter gray bar) offspring. V refers to a vehicle control. H refers to high MK0677 exposure levels. FIG. 5 is a graph depicting the effects of exposure to MK0677 in the womb on offspring. The first set of experiments was designed to determine the degree of anhedonia in offspring when raised by an MK-treated mom. Anhedonia is the inability of a subject to experience pleasure from activities usually found enjoyable. A first experiment was conducted to show the effects of perinatal exposure to MK0677 on female versus male offspring. V refers to a vehicle control. H refers to high MK0677 exposure levels. […] Additionally the foster mother had no effect. […] Another study involved determining the effects of exposure to MK0677 in the womb on offspring.

post-partum mothers = test: Depressive behaviors in post-partum mothers; type: in vivo; settings: MK-0677 treatment vs vehicle control (FIG. 1)
Text: FIG. 1 is a graph depicting depressive behaviors in post-partum mothers. […] The data is shown in Figure, a bar graph depicting depressive behaviors in post-partum mothers in response to vehicle control of MK-0677 treatment. Experiments were designed to determine the effects of elevated ghrelin activity on the fetus.

## CC(C)(N)C(=O)N[C@H](COCc1ccccc1)C(=O)N1CCC2(CC1)CN(S(C)(=O)=O)c1ccccc12 [MK-0677]
offspring; offspring from mothers exposed to high MK levels (n=11) vs controls (n=12), t-test, p=0.03 (FIG. 5)
  sucrose preference in offspring: significantly lower compared to controls
offspring; perinatal exposure, high MK0677 vs vehicle, female versus male offspring (FIG. 4)
  degree of anhedonia in offspring: female versus male response: no difference was seen between the response of male and female babies
offspring; perinatal exposure, high MK0677 vs vehicle, foster mother had no effect (FIG. 4)
  degree of anhedonia in offspring: foster versus biological mother: an influence was observed for the biological mother
offspring; pups from MK mothers, pups from vehicle-treated mothers significantly preferred sucrose (p=0.046 vs. 50%)
  preference of sucrose solution to water (vs. 50%): did not
post-partum mothers
  maternal depressive behaviors: enhanced maternal depressive behaviors
